Results on 16 compounds are retold here after ChEMBL document CHEMBL4184167, “Fluoroethoxy-1,4-diphenethylpiperidine and piperazine derivatives: Potent and selective inhibitors of [3H]dopamine uptake at the vesicular monoamine transporter-2” (Bioorg Med Chem Lett, 2017).

The target in data set [1] is Synaptic vesicular amine transporter (Rattus norvegicus, UniProt Q01827). Description: Inhibition of [3H]dopamine uptake at VMAT2 in rat striatal synaptic vesicles by scintillation spectrometry.
The target of data set [2] is Sodium-dependent serotonin transporter (Rattus norvegicus, UniProt P31652). Description: Inhibition of [3H]serotonin uptake at SERT in rat striatal synaptosomes preincubated for 5 mins followed by radioligand addition measured after 10 mins by scintillation spectrometry. It is filed as subcellular, Striatum.
The target in data set [3] is Voltage-gated inwardly rectifying potassium channel KCNH2 (Homo sapiens, UniProt Q12809). Description: Displacement of [3H]Dofetilide from human ERG expressed in HEK293 cells after 60 mins by scintillation spectrometry.
Data set [4] can be described thus: Half life in Sprague-Dawley rat plasma. Format: ADME, cell-free.
Data set [5] addresses Sodium-dependent dopamine transporter (Rattus norvegicus, UniProt P23977). Put plainly: Inhibition of [3H]dopamine uptake at dopamine transporter in rat striatal synaptosomes preincubated for 5 mins followed by radioligand addition measured after 10 mins by scintillation spectrometry. Format: subcellular, Striatum.

Sequence of Sodium-dependent serotonin transporter (P31652 whole entry): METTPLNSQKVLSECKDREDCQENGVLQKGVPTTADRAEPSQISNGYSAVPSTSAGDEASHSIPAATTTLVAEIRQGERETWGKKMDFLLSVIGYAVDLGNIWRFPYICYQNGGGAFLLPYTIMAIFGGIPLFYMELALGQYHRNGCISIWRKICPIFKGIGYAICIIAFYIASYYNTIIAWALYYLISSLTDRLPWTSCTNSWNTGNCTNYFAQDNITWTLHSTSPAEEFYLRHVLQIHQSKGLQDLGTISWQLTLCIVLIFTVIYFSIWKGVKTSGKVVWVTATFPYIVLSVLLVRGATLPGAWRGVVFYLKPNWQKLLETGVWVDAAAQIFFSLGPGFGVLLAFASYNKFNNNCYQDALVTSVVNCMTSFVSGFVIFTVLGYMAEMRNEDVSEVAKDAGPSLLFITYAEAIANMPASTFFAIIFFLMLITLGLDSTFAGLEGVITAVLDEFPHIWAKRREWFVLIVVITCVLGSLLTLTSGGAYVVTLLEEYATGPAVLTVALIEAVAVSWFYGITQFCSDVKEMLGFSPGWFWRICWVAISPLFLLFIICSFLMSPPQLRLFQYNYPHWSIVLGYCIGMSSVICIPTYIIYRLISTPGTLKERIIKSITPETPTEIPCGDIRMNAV
Sequence of Voltage-gated inwardly rectifying potassium channel KCNH2 (Q12809 whole entry): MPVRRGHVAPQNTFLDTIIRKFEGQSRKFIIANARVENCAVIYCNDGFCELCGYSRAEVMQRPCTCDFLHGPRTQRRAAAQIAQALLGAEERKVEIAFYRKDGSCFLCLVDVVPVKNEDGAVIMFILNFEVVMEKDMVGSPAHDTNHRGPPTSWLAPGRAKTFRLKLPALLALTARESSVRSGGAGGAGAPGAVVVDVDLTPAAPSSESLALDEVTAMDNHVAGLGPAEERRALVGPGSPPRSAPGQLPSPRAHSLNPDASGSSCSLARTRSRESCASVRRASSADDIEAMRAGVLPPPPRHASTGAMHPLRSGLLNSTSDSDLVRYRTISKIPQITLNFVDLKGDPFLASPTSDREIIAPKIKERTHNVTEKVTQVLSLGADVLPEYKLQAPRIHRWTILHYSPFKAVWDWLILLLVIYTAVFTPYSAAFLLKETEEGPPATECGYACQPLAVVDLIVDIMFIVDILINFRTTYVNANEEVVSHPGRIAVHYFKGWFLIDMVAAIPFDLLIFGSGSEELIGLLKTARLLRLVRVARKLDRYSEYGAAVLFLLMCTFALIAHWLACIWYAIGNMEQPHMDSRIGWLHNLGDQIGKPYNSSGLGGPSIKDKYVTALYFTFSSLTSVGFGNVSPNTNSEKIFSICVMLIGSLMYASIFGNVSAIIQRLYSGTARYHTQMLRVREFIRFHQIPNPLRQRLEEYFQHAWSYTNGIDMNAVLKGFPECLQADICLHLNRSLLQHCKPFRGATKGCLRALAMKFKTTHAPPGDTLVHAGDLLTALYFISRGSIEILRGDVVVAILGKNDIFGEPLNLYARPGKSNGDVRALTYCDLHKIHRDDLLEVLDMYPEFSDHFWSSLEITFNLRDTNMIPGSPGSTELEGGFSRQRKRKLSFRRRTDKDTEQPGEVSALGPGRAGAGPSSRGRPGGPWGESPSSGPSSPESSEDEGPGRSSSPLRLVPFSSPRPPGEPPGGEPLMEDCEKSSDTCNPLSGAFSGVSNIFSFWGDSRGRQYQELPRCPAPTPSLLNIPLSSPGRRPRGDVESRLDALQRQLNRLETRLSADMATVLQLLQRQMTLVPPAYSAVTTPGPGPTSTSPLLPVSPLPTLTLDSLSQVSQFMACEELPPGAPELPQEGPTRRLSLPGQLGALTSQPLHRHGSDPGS
Sequence of Synaptic vesicular amine transporter (Q01827 whole entry): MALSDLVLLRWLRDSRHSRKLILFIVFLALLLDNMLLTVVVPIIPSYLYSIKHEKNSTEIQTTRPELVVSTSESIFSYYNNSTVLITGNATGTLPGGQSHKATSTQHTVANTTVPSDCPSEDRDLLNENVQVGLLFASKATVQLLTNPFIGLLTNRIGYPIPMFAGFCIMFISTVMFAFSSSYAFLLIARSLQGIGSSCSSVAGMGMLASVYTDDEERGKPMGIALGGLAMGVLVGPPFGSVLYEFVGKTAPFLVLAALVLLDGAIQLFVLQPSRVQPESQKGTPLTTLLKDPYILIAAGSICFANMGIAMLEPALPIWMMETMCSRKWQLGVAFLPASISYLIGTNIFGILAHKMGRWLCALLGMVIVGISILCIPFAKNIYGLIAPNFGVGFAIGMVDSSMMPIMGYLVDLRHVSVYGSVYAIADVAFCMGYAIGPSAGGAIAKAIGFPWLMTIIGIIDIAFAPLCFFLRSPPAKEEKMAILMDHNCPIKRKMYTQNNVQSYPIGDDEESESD
Sequence of Sodium-dependent dopamine transporter (P23977 whole entry): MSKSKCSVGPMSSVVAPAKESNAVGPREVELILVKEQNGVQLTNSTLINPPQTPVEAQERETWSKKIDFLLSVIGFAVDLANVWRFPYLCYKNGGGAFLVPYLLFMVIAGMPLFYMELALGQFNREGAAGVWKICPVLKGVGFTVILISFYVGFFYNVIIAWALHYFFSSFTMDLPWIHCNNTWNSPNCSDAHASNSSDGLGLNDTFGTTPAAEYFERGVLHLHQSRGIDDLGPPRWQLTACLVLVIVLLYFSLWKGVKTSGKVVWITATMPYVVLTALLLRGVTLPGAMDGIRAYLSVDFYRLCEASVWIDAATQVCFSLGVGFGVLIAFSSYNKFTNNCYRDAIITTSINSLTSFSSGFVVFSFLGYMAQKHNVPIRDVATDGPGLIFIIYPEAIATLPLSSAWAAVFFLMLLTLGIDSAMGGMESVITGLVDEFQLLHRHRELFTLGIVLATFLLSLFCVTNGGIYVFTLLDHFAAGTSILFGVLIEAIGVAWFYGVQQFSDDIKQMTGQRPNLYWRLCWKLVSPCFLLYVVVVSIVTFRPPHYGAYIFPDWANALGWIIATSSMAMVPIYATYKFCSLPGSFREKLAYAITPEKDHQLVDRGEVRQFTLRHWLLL

The Ki is a dissociation constant, usually derived from enzyme kinetics or from competition with a known ligand. A high value points to lower affinity. `FCCOc1cccc(CCN2CCN(CCc3ccccc3)CC2)c1` yielded a Ki in data set [1] of 73 nM.

Turning to `FCCOc1ccccc1CCC1CCN(CCc2ccc(F)cc2)CC1`, in data set [1], the inhibition constant Ki was found to be 27 nM.

Take `FCCOc1ccc(CCC2CCN(CCc3ccccc3Cl)CC2)cc1`: the values for the Ki in data set [1] and in data set [2] were 190 nM and 3620 nM, respectively.

Usually IC50 stands for the point on the concentration scale where inhibition reaches its midpoint. A higher IC50 goes with weaker potency. `COc1ccc(CCN2CCC(CCc3ccccc3OCCF)CC2)cc1` yielded an inhibitory constant (Ki) in data set [1] of 73 nM. In data set [3], this compound displayed an IC50 of 350 nM.

Regarding `COc1ccccc1CCN1CCC(CCc2ccccc2OCCF)CC1`, the Ki in data set [1] came out at 25 nM.

By half-life is commonly meant the time needed for the level to fall by half in the phase considered. Low values mean fast loss, high ones slow loss. With `CN1[C@@H](CC(=O)c2ccccc2)CCC[C@H]1C[C@H](O)c1ccccc1` [LOBELINE], the half-life in data set [4] came out at 50 min.

Turning to `FCCOc1ccc(CCN2CCN(CCc3ccccc3Cl)CC2)cc1`, the Ki in data set [1] is 450 nM; in data set [2], 480 nM. This compound returned a half-inhibitory concentration (IC50) in data set [3] of 1400 nM.

As to `FCCOc1ccc(CCN2CCN(CCc3ccccc3)CC2)cc1`, the inhibition constant (Ki) is 600 nM in data set [1], 2740 nM in data set [5] and 3370 nM in data set [2]. In data set [3], this compound showed an IC50 of 3050 nM.

As to `COc1ccccc1CCN1CCC(CCc2cccc(OCCF)c2)CC1`, the figures for the inhibitory constant (Ki) in data set [1] and in data set [2] were 61 nM and 470 nM, respectively. In data set [3], this compound yielded an IC50 of 800 nM.

On to `FCCOc1ccccc1CCN1CCN(CCc2ccc(F)cc2)CC1`, for which the Ki amounted to 24 nM in data set [1] and 300 nM in data set [2].

Consider `FCCOc1ccc(CCN2CCC(CCc3ccccc3)CC2)cc1`, for which the Ki in data set [1] is 150 nM; in data set [5], 1060 nM; in data set [2], 390 nM. In data set [3], this compound returned an IC50 of 350 nM.

For `FCCOc1ccccc1CCN1CCN(CCc2ccccc2Cl)CC1`, the Ki in data set [1] was determined as 14 nM; in data set [2], 72 nM. The same compound showed an IC50 in data set [3] of 850 nM.

The compound `FCCOc1ccccc1CCC1CCN(CCc2ccccc2)CC1` gave a Ki in data set [1] of 35 nM.

Take `COc1ccc(CCN2CCC(CCc3cccc(OCCF)c3)CC2)cc1`: the inhibition constant Ki in data set [1] came to 67 nM; in data set [2] it was 660 nM. In data set [3], the IC50 was 280 nM.

`FCCOc1cccc(CCN2CCC(CCc3ccccc3)CC2)c1`: the Ki in data set [1] stood at 24 nM.

On to `FCCOc1cccc(CCC2CCN(CCc3ccccc3)CC2)c1`, for which the results for the Ki in data set [1] and in data set [5] were 53 nM and 3140 nM, respectively.
